Experimental data taken from ChEMBL document CHEMBL1909046, “DrugMatrix in vitro pharmacology data”.

Assays:
[1] = target: Sodium-dependent noradrenaline transporter (Homo sapiens, UniProt P23975); assay: DRUGMATRIX: Norepinephrine Transporter radioligand binding (ligand: [125I] RTI-55); assay type: cell membranes, MDCK, Membrane; details: mdck; Not Active = under 50% inhibition at 10 µM
[2] = target: Voltage-gated inwardly rectifying potassium channel KCNH2 (Homo sapiens, UniProt Q12809); details: hek293; further: in other assays of this panel Not Active means under 50% inhibition at 10 µM
[3] = target: Adenosine receptor A2a (Homo sapiens, UniProt P29274); assay: DRUGMATRIX: Adenosine A2A radioligand binding (ligand: […]); assay type: cell membranes, HEK293, Membrane; details: hek293; Not Active = under 50% inhibition at 10 µM
[4] = target: Sigma non-opioid intracellular receptor 1 (Homo sapiens, UniProt Q99720); assay: DRUGMATRIX: Sigma1 radioligand binding (ligand: [3H] Haloperidol); assay type: cell membranes, Jurkat, Membrane; details: jurkat; Not Active = under 50% inhibition at 10 µM
[5] = target: T1, Thromboxane-A synthase (Homo sapiens, UniProt P24557); assay: biochemical; assay type: tissue-based, Platelet; details: platelet;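 further: enzyme inhibition assay with PGH2 supplied as substrate; in other assays of this panel Not Active means under 50% inhibition at 10 µM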
T1 sequence (P24557 whole entry): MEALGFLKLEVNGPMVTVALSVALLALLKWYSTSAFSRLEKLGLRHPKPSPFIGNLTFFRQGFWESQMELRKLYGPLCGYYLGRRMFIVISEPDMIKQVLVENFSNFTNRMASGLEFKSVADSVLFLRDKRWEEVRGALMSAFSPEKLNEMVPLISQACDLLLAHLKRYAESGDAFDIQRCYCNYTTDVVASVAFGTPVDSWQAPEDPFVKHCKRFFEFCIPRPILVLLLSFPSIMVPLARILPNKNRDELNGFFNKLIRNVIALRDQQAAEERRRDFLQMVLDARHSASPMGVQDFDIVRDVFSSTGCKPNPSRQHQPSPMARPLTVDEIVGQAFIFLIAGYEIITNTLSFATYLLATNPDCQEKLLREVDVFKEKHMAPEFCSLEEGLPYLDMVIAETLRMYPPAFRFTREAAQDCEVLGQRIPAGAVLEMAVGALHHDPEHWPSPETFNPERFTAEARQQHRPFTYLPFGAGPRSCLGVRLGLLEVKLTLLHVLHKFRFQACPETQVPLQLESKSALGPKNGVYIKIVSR

[6] = DRUGMATRIX: Glutamate, NMDA, Agonism radioligand binding (ligand: [3H] CGP-39653); assay type: cell membranes, Rattus norvegicus, Wistar, Cerebral cortex, Membrane; details: Not Active = under 50% inhibition at 10 µM
[7] = target: T2, 5-hydroxytryptamine receptor 2C (Homo sapiens, UniProt P28335); assay: DRUGMATRIX: Serotonin (5-Hydroxytryptamine) 5-HT2C radioligand binding (ligand: [3H] Mesulergine); assay type: cell membranes, CHO-K1, Membrane; details: cho-k1; Not Active = under 50% inhibition at 10 µM
T2 sequence (P28335 whole entry): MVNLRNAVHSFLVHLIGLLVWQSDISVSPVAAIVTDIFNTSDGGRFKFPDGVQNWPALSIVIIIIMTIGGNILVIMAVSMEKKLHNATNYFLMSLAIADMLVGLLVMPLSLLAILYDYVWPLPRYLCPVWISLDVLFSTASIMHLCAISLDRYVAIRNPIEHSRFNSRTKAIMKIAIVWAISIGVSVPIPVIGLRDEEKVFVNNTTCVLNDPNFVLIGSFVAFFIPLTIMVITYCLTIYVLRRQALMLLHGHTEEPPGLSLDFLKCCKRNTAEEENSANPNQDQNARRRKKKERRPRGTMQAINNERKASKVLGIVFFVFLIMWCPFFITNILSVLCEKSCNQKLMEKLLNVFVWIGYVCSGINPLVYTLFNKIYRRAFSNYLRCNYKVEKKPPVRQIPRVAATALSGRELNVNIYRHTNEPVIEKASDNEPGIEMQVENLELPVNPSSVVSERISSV

[8] = target: T3, Receptor-type tyrosine-protein phosphatase C (Homo sapiens, UniProt P08575); design: species or system Escherichia coli;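 further: inhibition of CD45 enzyme activity measured using DiFMUP as substrate; in other assays of this panel Not Active means under 50% inhibition at 10 µM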
T3 sequence (P08575 whole entry): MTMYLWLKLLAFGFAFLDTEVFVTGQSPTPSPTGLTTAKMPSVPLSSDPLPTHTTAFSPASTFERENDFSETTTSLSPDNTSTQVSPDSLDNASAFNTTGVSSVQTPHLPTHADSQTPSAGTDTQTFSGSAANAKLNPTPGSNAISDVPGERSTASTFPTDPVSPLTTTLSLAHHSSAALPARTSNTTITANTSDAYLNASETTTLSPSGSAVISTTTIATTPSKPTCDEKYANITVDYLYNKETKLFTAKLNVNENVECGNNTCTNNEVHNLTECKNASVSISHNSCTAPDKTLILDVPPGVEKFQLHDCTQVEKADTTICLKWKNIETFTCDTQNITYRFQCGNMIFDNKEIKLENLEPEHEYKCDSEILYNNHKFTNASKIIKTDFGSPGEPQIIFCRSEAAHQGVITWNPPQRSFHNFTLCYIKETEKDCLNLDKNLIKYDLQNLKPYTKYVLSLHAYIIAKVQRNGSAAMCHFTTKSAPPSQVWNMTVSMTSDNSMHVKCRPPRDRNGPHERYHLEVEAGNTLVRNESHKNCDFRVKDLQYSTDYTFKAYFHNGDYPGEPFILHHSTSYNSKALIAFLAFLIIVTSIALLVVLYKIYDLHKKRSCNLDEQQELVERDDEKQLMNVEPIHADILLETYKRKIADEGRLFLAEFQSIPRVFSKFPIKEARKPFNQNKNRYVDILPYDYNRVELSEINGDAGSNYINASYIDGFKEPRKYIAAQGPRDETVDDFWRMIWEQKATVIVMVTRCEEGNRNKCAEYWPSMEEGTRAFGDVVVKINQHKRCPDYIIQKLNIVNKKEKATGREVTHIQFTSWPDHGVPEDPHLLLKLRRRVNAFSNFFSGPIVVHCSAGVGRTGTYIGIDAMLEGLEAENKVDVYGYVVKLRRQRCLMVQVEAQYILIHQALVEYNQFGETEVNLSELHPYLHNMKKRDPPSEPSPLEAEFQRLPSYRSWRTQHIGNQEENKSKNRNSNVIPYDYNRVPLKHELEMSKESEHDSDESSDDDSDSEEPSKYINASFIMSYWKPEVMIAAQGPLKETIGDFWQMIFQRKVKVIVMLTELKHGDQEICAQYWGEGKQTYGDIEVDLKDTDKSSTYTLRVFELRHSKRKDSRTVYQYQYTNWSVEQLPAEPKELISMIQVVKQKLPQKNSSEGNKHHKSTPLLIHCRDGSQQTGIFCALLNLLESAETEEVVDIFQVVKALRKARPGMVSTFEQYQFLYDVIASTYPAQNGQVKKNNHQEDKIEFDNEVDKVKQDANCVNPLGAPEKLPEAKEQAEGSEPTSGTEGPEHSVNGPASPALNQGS

[9] = target: Platelet-activating factor receptor (Homo sapiens, UniProt P25105); assay: biochemical; assay type: tissue-based; details: platelet; further: in other assays of this panel Not Active means under 50% inhibition at 10 µM
[10] = DRUGMATRIX: Atrial Natriuretic Factor (ANF) radioligand binding (ligand: [125I] ANF (rat)); assay type: cell membranes, Cavia porcellus, Dunkin-Hartley, Adrenal gland, Membrane; details: Not Active = under 50% inhibition at 10 µM

Adenosine receptor A2a, sequence (P29274 whole entry): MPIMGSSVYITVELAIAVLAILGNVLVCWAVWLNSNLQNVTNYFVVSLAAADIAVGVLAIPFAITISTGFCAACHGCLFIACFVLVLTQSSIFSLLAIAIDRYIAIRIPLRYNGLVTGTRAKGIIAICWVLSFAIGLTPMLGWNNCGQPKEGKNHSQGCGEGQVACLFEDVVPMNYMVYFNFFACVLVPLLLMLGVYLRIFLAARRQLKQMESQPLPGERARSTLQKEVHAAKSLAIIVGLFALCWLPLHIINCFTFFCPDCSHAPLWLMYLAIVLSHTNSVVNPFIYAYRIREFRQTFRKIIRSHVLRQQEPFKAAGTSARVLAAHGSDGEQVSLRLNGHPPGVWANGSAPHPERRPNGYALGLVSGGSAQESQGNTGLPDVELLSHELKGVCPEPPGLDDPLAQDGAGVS
Platelet-activating factor receptor, sequence (P25105 whole entry): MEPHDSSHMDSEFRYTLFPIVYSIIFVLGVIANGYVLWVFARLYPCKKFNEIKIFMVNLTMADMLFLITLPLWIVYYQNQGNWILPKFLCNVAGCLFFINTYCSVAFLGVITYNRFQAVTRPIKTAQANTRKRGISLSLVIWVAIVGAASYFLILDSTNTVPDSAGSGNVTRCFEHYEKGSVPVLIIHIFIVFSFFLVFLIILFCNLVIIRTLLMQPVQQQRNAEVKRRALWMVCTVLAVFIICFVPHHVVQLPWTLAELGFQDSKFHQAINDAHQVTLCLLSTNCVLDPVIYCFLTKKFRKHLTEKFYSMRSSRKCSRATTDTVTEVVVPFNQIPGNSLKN
Voltage-gated inwardly rectifying potassium channel KCNH2, sequence (Q12809 whole entry): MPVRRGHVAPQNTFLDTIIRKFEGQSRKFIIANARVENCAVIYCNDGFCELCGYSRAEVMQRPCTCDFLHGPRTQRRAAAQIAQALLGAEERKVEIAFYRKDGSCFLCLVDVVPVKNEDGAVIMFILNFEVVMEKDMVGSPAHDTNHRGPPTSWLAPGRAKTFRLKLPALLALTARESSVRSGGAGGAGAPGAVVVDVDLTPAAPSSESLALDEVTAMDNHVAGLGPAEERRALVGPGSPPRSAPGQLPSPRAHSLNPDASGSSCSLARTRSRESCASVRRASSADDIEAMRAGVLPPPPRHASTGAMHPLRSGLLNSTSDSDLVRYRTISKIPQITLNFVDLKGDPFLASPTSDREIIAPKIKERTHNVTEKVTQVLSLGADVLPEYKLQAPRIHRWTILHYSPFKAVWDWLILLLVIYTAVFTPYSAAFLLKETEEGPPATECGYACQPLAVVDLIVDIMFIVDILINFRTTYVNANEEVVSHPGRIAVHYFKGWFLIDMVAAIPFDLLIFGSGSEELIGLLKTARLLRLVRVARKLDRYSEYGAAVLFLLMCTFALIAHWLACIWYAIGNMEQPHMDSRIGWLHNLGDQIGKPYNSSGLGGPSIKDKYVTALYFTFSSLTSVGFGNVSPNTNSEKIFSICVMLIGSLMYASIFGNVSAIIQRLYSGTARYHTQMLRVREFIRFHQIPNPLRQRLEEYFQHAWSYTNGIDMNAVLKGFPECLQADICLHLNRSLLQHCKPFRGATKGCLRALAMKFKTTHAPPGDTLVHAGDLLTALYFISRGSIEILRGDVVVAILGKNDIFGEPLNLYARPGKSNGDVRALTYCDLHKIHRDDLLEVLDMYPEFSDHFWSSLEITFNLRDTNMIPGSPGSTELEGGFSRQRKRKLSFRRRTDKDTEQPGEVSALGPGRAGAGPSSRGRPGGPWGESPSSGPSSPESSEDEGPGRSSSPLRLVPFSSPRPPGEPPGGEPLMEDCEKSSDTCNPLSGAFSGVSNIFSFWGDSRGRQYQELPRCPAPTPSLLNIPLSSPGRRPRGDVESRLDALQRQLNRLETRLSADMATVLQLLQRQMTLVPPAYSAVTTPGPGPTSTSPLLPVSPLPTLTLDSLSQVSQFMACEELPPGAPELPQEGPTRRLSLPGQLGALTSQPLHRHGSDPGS
Sigma non-opioid intracellular receptor 1, sequence (Q99720 whole entry): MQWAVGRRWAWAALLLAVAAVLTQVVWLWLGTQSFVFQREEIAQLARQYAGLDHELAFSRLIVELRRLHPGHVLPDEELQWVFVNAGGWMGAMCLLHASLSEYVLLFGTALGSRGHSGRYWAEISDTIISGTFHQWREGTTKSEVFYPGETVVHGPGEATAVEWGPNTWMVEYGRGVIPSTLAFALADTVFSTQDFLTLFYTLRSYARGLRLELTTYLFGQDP
Sodium-dependent noradrenaline transporter, sequence (P23975 whole entry): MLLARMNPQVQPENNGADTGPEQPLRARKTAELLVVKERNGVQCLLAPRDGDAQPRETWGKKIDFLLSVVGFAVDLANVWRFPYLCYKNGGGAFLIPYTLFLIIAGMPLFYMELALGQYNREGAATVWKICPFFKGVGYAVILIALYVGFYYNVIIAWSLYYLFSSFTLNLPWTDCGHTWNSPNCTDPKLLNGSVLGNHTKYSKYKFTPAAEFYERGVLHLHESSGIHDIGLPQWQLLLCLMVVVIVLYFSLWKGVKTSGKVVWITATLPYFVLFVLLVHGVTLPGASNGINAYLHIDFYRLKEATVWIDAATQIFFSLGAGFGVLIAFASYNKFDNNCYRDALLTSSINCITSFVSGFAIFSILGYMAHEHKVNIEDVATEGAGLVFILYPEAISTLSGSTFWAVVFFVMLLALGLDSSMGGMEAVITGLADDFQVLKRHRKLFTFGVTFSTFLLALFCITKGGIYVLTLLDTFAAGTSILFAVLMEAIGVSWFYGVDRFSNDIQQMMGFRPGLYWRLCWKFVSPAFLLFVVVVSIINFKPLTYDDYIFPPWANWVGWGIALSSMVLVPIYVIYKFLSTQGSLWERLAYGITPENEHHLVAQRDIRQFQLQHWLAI

CC(=O)[C@@]1(O)CC[C@H]2[C@@H]3C[C@H](C)C4=CC(=O)C=C[C@]4(C)[C@@]3(F)[C@@H](O)C[C@@]21C [FLUOROMETHOLONE]
Not Active: IC50 [1] | IC50 [2] | Ki [2] | IC50 [3] | IC50 [4] | IC50 [5] | IC50 [6] | Ki [6] | IC50 [7] | IC50 [8] | IC50 [9] | IC50 [10] | Ki [10]

O=c1[nH]cc(F)c(=O)[nH]1 [FLUOROURACIL]
Not Active: IC50 [1] | IC50 [2] | Ki [2] | IC50 [3] | IC50 [4] | IC50 [5] | IC50 [6] | Ki [6] | IC50 [7] | IC50 [8] | IC50 [9] | IC50 [10] | Ki [10]

CC(C)n1c(/C=C/C(O)CC(O)CC(=O)O)c(-c2ccc(F)cc2)c2ccccc21 (centres undefined) [FLUVASTATIN]
Not Active: IC50 [1] | IC50 [2] | Ki [2] | IC50 [3] | IC50 [4] | IC50 [5] | IC50 [6] | Ki [6] | IC50 [7] | IC50 [8] | IC50 [9] | IC50 [10] | Ki [10]

NCC1(CC(=O)O)CCCCC1 [GABAPENTIN]
Not Active: IC50 [1] | IC50 [2] | Ki [2] | IC50 [3] | IC50 [4] | IC50 [5] | IC50 [6] | Ki [6] | IC50 [7] | IC50 [8] | IC50 [9] | IC50 [10] | Ki [10]

CC[N+](CC)(CC)CCOc1cccc(OCC[N+](CC)(CC)CC)c1OCC[N+](CC)(CC)CC.[I-].[I-].[I-] [GALLAMINE TRIETHIODIDE]
Not Active: IC50 [1] | IC50 [2] | Ki [2] | IC50 [3] | IC50 [4] | IC50 [5] | IC50 [6] | Ki [6] | IC50 [7] | IC50 [8] | IC50 [9] | IC50 [10] | Ki [10]

COc1c(N2CCNC(C)C2)c(F)cc2c(=O)c(C(=O)O)cn(C3CC3)c12 (centres undefined) [GATIFLOXACIN]
Not Active: IC50 [1] | IC50 [2] | Ki [2] | IC50 [3] | IC50 [4] | IC50 [5] | IC50 [6] | Ki [6] | IC50 [7] | IC50 [8] | IC50 [9] | IC50 [10] | Ki [10]

NCC(=O)O [GLYCINE]
Not Active: IC50 [1] | IC50 [2] | Ki [2] | IC50 [3] | IC50 [4] | IC50 [5] | IC50 [6] | Ki [6] | IC50 [7] | IC50 [8] | IC50 [9] | IC50 [10] | Ki [10]

CC1(C)[C@@H](O[C@H]2O[C@H](C(=O)O)[C@@H](O)[C@H](O)[C@H]2O[C@@H]2O[C@H](C(=O)O)[C@@H](O)[C@H](O)[C@H]2O)CC[C@]2(C)[C@H]3C(=O)C=C4[C@@H]5C[C@@](C)(C(=O)O)CC[C@]5(C)CC[C@@]4(C)[C@]3(C)CC[C@@H]12 [GLYCYRRHIZIN]
Not Active: IC50 [1] | IC50 [2] | Ki [2] | IC50 [3] | IC50 [4] | IC50 [5] | IC50 [6] | Ki [6] | IC50 [7] | IC50 [8] | IC50 [9] | IC50 [10] | Ki [10]
